Consider one compound from ChEMBL document CHEMBL4813920, “Metronidazole-conjugates: A comprehensive review of recent developments towards synthesis and medicinal perspective” (Eur J Med Chem, 2021).

Series [1] deals with Clostridium sporogenes. Briefly: Antimicrobial activity against Clostridium sporogenes ATCC 19404 incubated for 24 hrs by broth microdilution method. Format: functional.
Series [2] concerns Escherichia coli. Description: Antibacterial activity against Escherichia coli ATCC 8739 incubated for 24 hrs by broth microdilution method. It is filed as functional. (Dilution methods test growth across graded concentrations, often in twofold steps.)
Series [3] concerns Staphylococcus aureus. Description: Antibacterial activity against Staphylococcus aureus ATCC 6538P incubated for 24 hrs by broth microdilution method. Format: functional.
The subject of series [4] is Clostridium perfringens. Description: Antibacterial activity against Clostridium perfringens ATCC 13124 incubated for 48 hrs under anaerobic condition by MTT assay. It is filed as functional. In general terms: Tetrazolium assays rely on reduction of a dye to a coloured formazan, in cell work by metabolically active cells.
Series [5] relates to Leishmania braziliensis. Description: Antileishmanial activity against promastigote form of Leishmania braziliensis MHOM/BR/75/M2903 measured for 7 days by cell counting method. It is filed as functional. The conditions noted are these: MHOM/BR/75/M2903, 168 h, time 7 day.
Series [6] has as its system Leishmania mexicana. Briefly: Antileishmanial activity against promastigote form of Leishmania mexicana MHOM/BZ/82/Bel21 measured for 7 days by cell counting method. Format: functional. The conditions noted are these: MHOM/BZ/82/Bel21, 168 h, time 7 day.
The test system of series [7] is Entamoeba histolytica. Briefly: Antiamoebic activity against Entamoeba histolytica HK9 ATCC 30015 incubated for 72 hrs by trypan blue staining based assay. Format: functional, organism-based. The conditions noted are these: ATCC 30015, 72 h.
For series [8], the system named is Giardia intestinalis. Briefly: Antigiardial activity against Giardia intestinalis WB ATCC 30957 incubated for 72 hrs by trypan blue staining based assay. Format: functional, organism-based. The following applies: Giardia duodenalis, WB ATCC 30957, 72 h.
The subject of series [9] is Trichomonas vaginalis. Briefly: Anti-trichomonas activity against Trichomonas vaginalis JT incubated for 48 hrs by hemocytometer based eosin exclusion assay. It is filed as functional, organism-based.
Series [10] relates to Trichomonas vaginalis. Briefly: Anti-trichomonas activity against Trichomonas vaginalis CDC 085 incubated for 48 hrs by hemocytometer based eosin exclusion assay. It is filed as functional, organism-based. The following applies: CDC 085, 48 h.
Series [11] concerns Trichomonas vaginalis. Briefly: Anti-trichomonas activity against Trichomonas vaginalis GT3 incubated for 48 hrs. Format: functional, organism-based. The conditions noted are these: GT3, 48 h.
Series [12] relates to Trichomonas vaginalis. Description: Anti-trichomonas activity against Trichomonas vaginalis JT assessed as release of H2O2 at 0.229 uM preincubated for 3 hrs followed by DCFH-DA probe addition and measured after 30 mins by confocal microscopy. The following applies: time 3.5 hrs. Format: functional.
The subject of series [13] is Trichomonas vaginalis. Description: Anti-trichomonas activity against Trichomonas vaginalis JT assessed as release of superoxide radical at 0.229 uM preincubated for 3 hrs followed by Dihydroethidium probe addition and measured after 30 mins by confocal microscopy. Format: functional. The following applies: time 3.5 hrs.
A short description of series [14]: Selectivity index, ratio of CC50 for African green monkey Vero cells to IC50 for antigiardial activity against Giardia intestinalis MSS:0696:1. It is filed as toxicity. The following applies: read-out: Ratio CC50/IC50.
Series [15] can be described thus: Selectivity index, ratio of CC50 for African green monkey Vero cells to IC50 for antigiardial activity against Trichomonas vaginalis GT3. It is filed as toxicity. The conditions noted are these: read-out: Ratio CC50/IC50.

≈ marks a conversion by molar mass, not a printed value.

In the case of `Cc1ncc([N+](=O)[O-])n1CCO` [METRONIDAZOLE], the MIC (commonly the lowest concentration found to suppress growth) in series [1] came out at 42.9 µM (≈ 7.34 µg/mL); in [2], 5480 µM (≈ 938 µg/mL); in series [3], 2050 µM (≈ 351 µg/mL); in [4], 0.0058 µM (≈ 0.000993 µg/mL). For the same compound, the median lethal concentration (LC50) in series [5] and in [6] was greater than 1000 µM in each case. Moreover, the half-inhibitory concentration (IC50) (in general, the point on the concentration scale where inhibition reaches its midpoint) amounted to 5.2 µM in [7]; 5.7 µM in series [8]; 0.068 µM in series [9]; 0.49 µM in [10]; 0.93 µM in series [11]. The Activity was found to be 1800000 a.u in [12] and 350000 a.u in series [13]. The selectivity ratio in [14] is greater than 22; in [15], greater than 107.
